In publication doi:10.1101/2022.06.13.495986v1 (biorxiv, 2022):

Biological target: T1, HepII (Heptosyltransferase II) (Escherichia coli, UniProt P37692)
T1 sequence (P37692 1-348): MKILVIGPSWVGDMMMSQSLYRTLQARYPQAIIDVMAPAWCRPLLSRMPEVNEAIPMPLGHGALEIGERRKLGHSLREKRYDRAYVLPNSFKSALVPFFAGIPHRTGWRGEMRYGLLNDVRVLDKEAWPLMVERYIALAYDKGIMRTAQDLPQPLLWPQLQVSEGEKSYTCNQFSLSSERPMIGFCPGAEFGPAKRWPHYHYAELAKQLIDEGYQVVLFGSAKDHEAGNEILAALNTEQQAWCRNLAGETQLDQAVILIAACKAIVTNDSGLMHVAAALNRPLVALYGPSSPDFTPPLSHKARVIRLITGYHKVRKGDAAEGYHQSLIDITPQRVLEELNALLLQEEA
Experiment: tryptophan fluorescence quenching
Type: binding

Nc1ncnc2c1ncn2[C@@H]1O[C@H](COP(=O)(O)OP(=O)(O)O[C@@H]2O[C@H]([C@@H](O)CO)[C@@H](O)[C@H](O)[C@@H]2O)[C@@H](O)[C@H]1O [ADP-Hep]
Kd: 660 ± 460 nM
